Test results taken from patent US20030059338A1, “Methods for sterilizing biological materials using flavonoid/flavonol stabilizers” (priority 2001, published 2003).

Legend:
thrombin = assay: Thrombin clotting activity (chromagenic) of lyophilized thrombin after gamma irradiation with stabilizer (Example 3); type: biochemical; conditions: lyophilized thrombin + 10% BSA, 48.5-51.2 kGy at 1.846-1.949 kGy/hr, 4° C.; epicatechin 200 mM, purpurogallin 1M, biacalein 50 mM
Protocol: Samples of thrombin (100 NIH units, 1 ml), alone or in the presence of epicatechin (200 mM) or purpurogallin (1M, Aldrich) or biacalein (50 mM; Aldrich), and 10% bovine serum albumin, were prepared and lyophilized. Lyophilized samples were gamma irradiated to 48.5-51.2 kGy at a dose rate of 1.846-1.949 kGy/hr at 4° C. All samples were then assayed for clotting activity by conventional chromagenic methodology.

[1] = system: anti-insulin monoclonal immunoglobulin; assay: ELISA activity of freeze-dried anti-insulin monoclonal immunoglobulin after gamma irradiation with stabilizer (Example 1); type: binding; conditions: freeze-dried anti-insulin mAb + 1% BSA, irradiated to 45 kGy at 1.83 kGy/hr, 4° C.; diosmin 39.3 mM or silymarin 246 mM
Protocol: Samples were prepared by combining anti-insulin monoclonal antibody ([…] of 2 mg/ml solution) and either diosmin (39.3 mM; Sigma cat# D3525 lot 125H0831) or silymarin (246 mM; Aldrich cat #24592-4) in 3 ml glass vials with 13 mm stoppers. Samples were freeze-dried for approximately 64 hours and stoppered under vacuum and sealed with an aluminum, crimped seal. Samples were irradiated at a dose rate of 1.83 kGy/hr to a total dose of 45 kGy at 4° C. Monoclonal immunoglobulin activity was determined by a standard ELISA protocol. Maxisorp plates were coated with human recombinant insulin at […] overnight at 4° C. The plate was blocked with […] of blocking buffer (PBS, pH 7.4, 2% BSA) for two hours at 37° C. and then washed six times with wash buffer (TBS, pH 7, 0.05% TWEEN 20). Samples were re-suspended in […] of high purity water (100 ng/ml), diluted to 5 Fg/ml in a 300 Fl U-bottomed plate coated for either overnight or two hours with blocking buffer. Serial 3-fold dilutions were performed, with a final concentration of […]. Plates were incubated for one hour at 37° C. with agitation and then washed six times with a wash buffer. Phosphatase-labelled goat anti-mouse IgG (H+L) was diluted to 50 ng/ml in binding buffer and […] was added to each well. […] The plate was read on a Multiskan MCC/340 at 405 nm with the background absorbance at 620 nm subtracted.

Row | Structure (SMILES) | thrombin activity retained following gamma irradiation (thrombin) | recovery of activity [1]
1 | O=c1cc(-c2ccccc2)oc2cc(O)c(O)c(O)c12 [biacalein] | about 57% | –
2 | COc1ccc(-c2cc(=O)c3c(O)cc(O[C@@H]4O[C@H](CO[C@@H]5O[C@@H](C)[C@H](O)[C@@H](O)[C@H]5O)[C@@H](O)[C@H](O)[C@H]4O)cc3o2)cc1O [diosmin] | – | ~62%
3 | O=c1c(O)cccc2cc(O)c(O)c(O)c12 [purpurogallin] | over 90% | –
